In data set [1] the test system is CD3 mediated phosphorylation of ZAP70 in Jurkat cells. The data set can be described thus: CD3 mediated phosphorylation of ZAP70 in Jurkat cells (HTRF). The data set is classed as cell-based. The following applies: Jurkat cells stimulated with 20 μg/mL anti-CD3 antibody; for IC50: read-out: pZAP70 Inhibition IC50; for Emax: read-out: pZAP70 Inhibition - Maximum Percent Inhibition (% Inhibition). The procedure:
Inhibition of CD3 mediated phosphorylation of ZAP70 in Jurkat cells was measured by a cellular based Homogeneous Time-Resolved Fluorescence (HTRF) assay utilizing a Total ZAP-70 HTRF kit.
Briefly, Jurkat cells (˜1.3×10^6 cells/mL) were harvested on the day of experimentation. Cells were washed with PBS and resuspended in Assay Buffer (RPMI 1640 media plus 10% FBS) and counted.
Jurkat cells were seeded in Assay media at a total volume of 4 μL/well (40K cells/well) in a 384-low volume white flat bottom plate. The cells were then incubated at 37° C./5% CO2 for 30 minutes. The cells were then treated in duplicate with test compounds (3×) and reference compounds (3×) in a total volume of 4 μL, respectively. A compound dilution scheme is exemplified in FIG. 1.
The plate was then transferred to an incubator maintained at 37° C./5% CO2 for 2 minutes. Following incubation, cells were stimulated with 20 μg/mL of anti-CD3 antibody (1 mg/mL stock) and assay media was used to bring the total well volume 4 μL/well. The plate was then transferred to the incubator maintained at 37° C./5% CO2 for 2.5 minutes. Following incubation, 4 μL of lysis buffer (4×) provided in the kit was added to each well. The plate was then incubated at RT for 1 hour with gentle shaking. Following incubation, 4 μL of detection mix was added to each well and the plate was sealed with a plate sealer and left overnight at RT in the dark.
The Envision reader was set-up for Eu^3+ cryptate and fluorescence emission was read at two different wavelengths (620 nm and 665 nm). • Excitation filter: UV2(TRF) 320 nm • Emission filter: 665 nm • 2nd Emission filter: Europium 615 nm • Measurement height (mm): 6.5 • Excitation light (%): 100 • Delay (μs): 50 • Window time (μs): 400 • Time between flashes (μs): 2000 • Number of flashes: 100 • Number of flashes for 2nd detector: 100
The data is represented by the signal form the two wavelengths:
The ratio of the signal is calculated for each individual well:
The data was plotted using Graph Pad Prism. The significance between untreated vs. treated groups was assessed by One-way ANOVA and Bonferroni posttest comparing all columns in the graph.
ZAP70 IC50 results are shown in Table 6 for select compounds of the invention. The compound numbers correspond to the compound numbers in Table 1. […] “ND” indicates not determined.
ZAP70 percent maximum inhibition results are shown in Table 7 for select compounds of the invention. The compound numbers correspond to the compound numbers in Table 1.
A general note: In TR-FRET formats the signal depends on donor and acceptor labels being close together.

Data set [2] in a line: Microsomal stability assay, rat. The data set is classed as in vitro ADME. The following applies: rat microsomes; for half-life: read-out: Microsomal Stability (T1/2 min) Rat. The procedure: (§1) Microsomal stability assays were performed using mouse, rat, and human […] according to methods well-known in the art. Microsomal stability results are shown in Table 2 for selected compounds of the invention. The compound numbers correspond to the compound numbers in Table 1. […] “N/A” indicates not assayed.

A short description of data set [3]: Microsomal stability assay, mouse. The data set is classed as in vitro ADME. The following applies: mouse microsomes; for half-life: read-out: Microsomal Stability (T1/2 min) Mouse. The protocol:
as §1

The target of data set [4] is Nck SH3 domain interaction with the proline rich sequence of TCR subunit CD3ε (Homo sapiens, UniProt P16333). The data set can be described thus: Competitive binding, biosensor with Interferometric Optical Detection Method (IODM). The following applies: ratio of 1:1 between Nck SH3 domain and inhibitors; biotinylated CD3ε peptide on sensing surface. The procedure: Inhibition of Nck SH3 domain interaction with the proline rich sequence of TCR subunit CD3ε was measured by optical read-out of a biosensor based on the Interferometric Optical Detection Method (IODM), using established methods (WO 2010/026269; WO 2014/020159; Laguna, M. et al., Sensors, 2015, 15(8):19819-29; and Holgado, M. et al., Sensors, 2014, 14(2): 3675-89).
Briefly, a Biophotonic Cell (BICELL) based on Fabry-Perot interferometers was used as the photonic transducer. The BICELL was fabricated using SU8 in cyclopentanone according to known methods (e.g., Laguna, M. F. et al., Sensors, 2014, 14(4): 6695-6700). Cured film was then treated with 95% sulfuric acid for 10 seconds. Streptavidin was then immobilized on the sensing surface in phosphate buffered saline (PBS; pH 7.4) over 20 min at 37° C. followed by blocking of the surface with 5% skin milk in PBS (pH 7.4). Biotinylated CD3ε peptide (SEQ ID NO: 001) in PBS (pH 7.4) was incubated with the streptavidin coated film to biofunctionalize the sensing surface (20 min at 37° C.).
Competitive binding assays were performed to determine the affinity reaction of inhibitors. The screening was carried out using a ratio of 1:1 between Nck SH3 domain and inhibitors. The optical readout of the biosensor was accomplished by a Fourier transform visible-infrared (FT-VIS-IR) spectrometer. Competitive binding results are shown in Table 3 for selected compounds of the invention. The compound numbers correspond to the compound numbers in Table 1. Compounds having a designation of “A” provide an Increased Relative Optical Power (ΔIROP) of less than or equal to thirty percent (≤30%); compounds having a designation of “B” provide a ΔIROP of between thirty and fifty percent (>30% to ≤50%); compounds having a designation of “C” provide an ΔIROP of between fifty and seventy percent (>50% to ≤70%); and compounds having a designation of “D” provide a ΔIROP of greater than seventy percent (>70%).

The nature of data set [5]: Microsomal stability assay, human. The data set is classed as in vitro ADME. The conditions noted are these: human microsomes; for half-life: read-out: Microsomal Stability (T1/2 min) Human. The procedure: as §1
[6] abbreviates: Homo sapiens, maximum inhibition.

Where two headings read alike, the source gives them in different places.

Usually IC50 stands for the concentration that gives 50% inhibition.

For “4-((4-(4-fluorophenyl)-6-(trifluoromethoxy)-2H-chromen-3-yl)methyl)morpholine [Compound I-16]”, in data set [1] (maximum inhibition), the “pZAP70 Inhibition - Maximum Percent Inhibition (% Inhibition)” value is “C (a percent maximum inhibition of between forty and greater than thirty percent (40%≥x>30%))”. In addition, the IC50 in data set [1] is less than 1 nM. Moreover, the “Microsomal Stability (T1/2 min) Rat” value in data set [2] (half-life) was “C (a half-life of less than ten (<10) minutes)”. Moreover, in data set [3] (half-life), the “Microsomal Stability (T1/2 min) Mouse” value is “B (a half-life of between ten (10) and thirty (30) minutes)”. Moreover, the “ΔIROP (Increased Relative Optical Power)” value in data set [4] was “B (a ΔIROP of between thirty and fifty percent (>30% to ≤50%))”. The “Microsomal Stability (T1/2 min) Human” value in data set [5] (half-life) was “A (a half-life of greater than thirty (>30) minutes)”.

With `CN1CCN(C(=O)C2=C(c3ccc(F)cc3)c3cc(OC(F)F)ccc3OC2)CC1` [Compound I-3], the Emax in data set [1] (setting [6]) was no more than 30%. Further, in data set [1] (Homo sapiens), the IC50 was less than 1 nM. For the same compound, the values for the half-life in data set [2], in data set [3] and in data set [5] were less than 10 min, less than 10 min and 10 to 30 min, respectively. For the same compound, the “ΔIROP (Increased Relative Optical Power)” value in data set [4] was “B (a ΔIROP of between thirty and fifty percent (>30% to ≤50%))”.

Take `Fc1ccc(C2=C(c3nc(-c4ccccc4)no3)COc3ccc(OCC4CC4)cc32)cc1` [Compound I-12]: in data set [1] (setting [6]), the Emax was no more than 30%. The values for the half-life in data set [2], in data set [3] and in data set [5] were greater than 30 min, greater than 30 min and 10 to 30 min, respectively. Further, in data set [4], the “ΔIROP (Increased Relative Optical Power)” value was “C (an ΔIROP of between fifty and seventy percent (>50% to ≤70%))”.

As for `[2H]C([2H])([2H])Oc1ccc2c(c1)C(c1ccc(F)cc1)=C(CN1CCCC1)CO2` [Compound I-13], the Emax in data set [1] (setting [6]) lay in the range of 40 to 50%. Also, the IC50 in data set [1] (Homo sapiens) lay within 1 to 10 nM. The results for the half-life in data set [2], in data set [3] and in data set [5] were less than 10 min, less than 10 min and 10 to 30 min, respectively. Besides, the “ΔIROP (Increased Relative Optical Power)” value in data set [4] is “A (an Increased Relative Optical Power (ΔIROP) of less than or equal to thirty percent (≤30%))”.

In the case of `CC(C)Oc1ccc2c(c1)C(c1ccc(F)cc1)=C(CN1CCCC1)CO2` [Compound I-14], the Emax in data set [1] (setting [6]) is 30 to 40%. Besides, in data set [1] (Homo sapiens), the IC50 is less than 1 nM. For the same compound, the results for the half-life in data set [2], in data set [3] and in data set [5] were less than 10 min, less than 10 min and 10 to 30 min, respectively. Moreover, the “ΔIROP (Increased Relative Optical Power)” value in data set [4] was “C (an ΔIROP of between fifty and seventy percent (>50% to ≤70%))”.

`CC(C)c1ccc2c(c1)C(c1ccc(F)cc1)=C(CN1CCCC1)CO2` [Compound I-15]: in data set [1] (setting [6]), the Emax was in the range of 30 to 40%. In data set [1] (Homo sapiens), the IC50 is less than 1 nM. Further, the values for the half-life in data set [2], in data set [3] and in data set [5] were less than 10 min, less than 10 min and 10 to 30 min, respectively. Also, the “ΔIROP (Increased Relative Optical Power)” value in data set [4] was “C (an ΔIROP of between fifty and seventy percent (>50% to ≤70%))”.

With `COc1ccc2c(c1)C(c1ccc(Cl)cc1)=C(CN1CCCC1)CO2` [Compound I-19], in data set [1] (setting [6]), the Emax was greater than 50%. In data set [1] (Homo sapiens), the IC50 was 1 to 10 nM. Also, the half-life in data set [2] is less than 10 min; in data set [3], less than 10 min; in data set [5], 10 to 30 min. In addition, the “ΔIROP (Increased Relative Optical Power)” value in data set [4] is “C (an ΔIROP of between fifty and seventy percent (>50% to ≤70%))”.

On to `COc1ccc2c(c1)C(c1ccc(C(F)(F)F)cc1)=C(CN1CCCC1)CO2` [Compound I-20], for which, in data set [1] (setting [6]), the Emax lay in the range of 40 to 50%. For the same compound, the IC50 in data set [1] (Homo sapiens) is less than 1 nM. In addition, the half-life in data set [2] is less than 10 min; in data set [3], less than 10 min; in data set [5], 10 to 30 min. Moreover, the “ΔIROP (Increased Relative Optical Power)” value in data set [4] is “B (a ΔIROP of between thirty and fifty percent (>30% to ≤50%))”.

Regarding `COc1ccc2c(c1)C(c1cccc(F)c1)=C(CN1CCCC1)CO2` [Compound I-21], the Emax in data set [1] (setting [6]) was in the range of 40 to 50%. In addition, the IC50 in data set [1] (Homo sapiens) lay in the range of 1 to 10 nM. The half-life is less than 10 min in data set [2], less than 10 min in data set [3] and 10 to 30 min in data set [5]. The “ΔIROP (Increased Relative Optical Power)” value in data set [4] is “C (an ΔIROP of between fifty and seventy percent (>50% to ≤70%))”.

On to `COc1ccc2c(c1)C(c1ccc(C#N)cc1)=C(CN1CCCC1)CO2` [Compound I-22], for which the Emax in data set [1] (setting [6]) is no more than 30%. For the same compound, the results for the half-life in data set [2], in data set [3] and in data set [5] were less than 10 min, less than 10 min and 10 to 30 min, respectively. Further, in data set [4], the “ΔIROP (Increased Relative Optical Power)” value is “B (a ΔIROP of between thirty and fifty percent (>30% to ≤50%))”.

Consider `CN1CCN(C(=O)C2=C(c3ccc(F)cc3)c3cc(C(F)(F)F)ccc3OC2)CC1` [Compound I-26, (4-(4-fluorophenyl)-6-(trifluoromethyl)-2H-chromen-3-yl)(4-methylpiperazin-1-yl)methanone], for which the half-life is less than 10 min in data set [2], less than 10 min in data set [3] and 10 to 30 min in data set [5]. Besides, in data set [4], the “ΔIROP (Increased Relative Optical Power)” value was “C (an ΔIROP of between fifty and seventy percent (>50% to ≤70%))”.

For `COc1ccc2c(c1)C(c1ccc(Cl)cc1)=C(C(=O)N1CCN(C)CC1)CO2` [Compound I-28], the half-life in data set [2], in data set [3] and in data set [5] was less than 10 min in each case. In addition, the “ΔIROP (Increased Relative Optical Power)” value in data set [4] is “D (a ΔIROP of greater than seventy percent (>70%))”.

Turning to `COc1ccc2c(c1)C(c1ccc(C(F)(F)F)cc1)=C(C(=O)N1CCN(C)CC1)CO2` [Compound I-29], the half-life is 10 to 30 min in data set [2], less than 10 min in data set [3] and less than 10 min in data set [5]. Moreover, the “ΔIROP (Increased Relative Optical Power)” value in data set [4] was “B (a ΔIROP of between thirty and fifty percent (>30% to ≤50%))”.

With `COc1ccc2c(c1)C(c1cccc(F)c1)=C(C(=O)N1CCN(C)CC1)CO2` [Compound I-31], the half-life in data set [2] is less than 10 min; in data set [3], less than 10 min; in data set [5] it was 10 to 30 min. Further, the “ΔIROP (Increased Relative Optical Power)” value in data set [4] was “C (an ΔIROP of between fifty and seventy percent (>50% to ≤70%))”.

For the compound `N#CCCOc1ccc2c(c1)C(c1ccc(F)cc1)=C(CN1CCCC1)CO2` [Compound I-32, 3-((4-(4-fluorophenyl)-3-(pyrrolidin-1-ylmethyl)-2H-chromen-6-yl)oxy)propanenitrile], the half-life in data set [2] is less than 10 min; in data set [3], 10 to 30 min; in data set [5], 10 to 30 min. Besides, the “ΔIROP (Increased Relative Optical Power)” value in data set [4] was “B (a ΔIROP of between thirty and fifty percent (>30% to ≤50%))”.
